Source: patent US10898473B2, “Combinations to treat cancer” (EVOL SCIENCE LLC, priority 2016, dated 2021)

What was measured:
SK-MEL-28 cells [1] = assay: Colony formation assay; format: cell-based
Protocol: (§1) For colony formation assays, 400 cells per well were seeded into 24-well plates on day 0. Cells were treated with DMSO or gemcitabine at various doses on day 1 for 24 hours. Gemcitabine was washed out on day 2, vemurafenib, dabrafenib, and methotrexate was added. On day 4, drugs added on day 2 was washed out. Cells were allowed to grow for a subsequent 7 days before being fixed (10% methanol+10% acetic acid) and stained with crystal violet (0.4% in 20% ethanol) for quantitation as previously described (Bhattacharjee et al., 2014).

NCI-H2122 cells = assay: Colony formation assay; format: cell-based
Protocol: as §1

BxPC3M1 cells = assay: Colony formation assay; format: cell-based
Protocol: as §1

SK-MEL-28VR1 cells [2] = assay: Colony formation assay; format: cell-based
Protocol: as §1

SK-MEL-28VR1 cells [3] = assay: Mass spectrometry protein abundance
Protocol: (§2) 5 μL of sample were loaded onto a C18 trap column (PepMap100; 300-μm i.d.×5 mm, 5-μm particle size, 100 Å; Thermo Fisher Scientific) at a flow rate of 10 μL min^−1. […] The runs were analyzed using Progenesis-QI for Proteomics (Nonlinear dynamics). The chromatograms were aligned and the MS/MS data was extracted for peptide identification using Mascot (Matrix Science, London, UK; version 2.5.1). Mascot was set up to search the cRAP database, the custom database including the QMC peptide sequence and SwissProt database (selected for Homo sapiens) assuming the digestion enzyme trypsin. Mascot was searched with a fragment ion mass tolerance of 0.06 Da and a parent ion tolerance of 15 PPM. Deamidated of asparagine and glutamine, oxidation of methionine, acetyl of lysine, propionyl of lysine and carbamidomethylation of cysteine were specified in Mascot as variable modifications. The peptides identified using a FDR<1% were extracted and imported back into Progenesis for assignment of the peaks. Only proteins with at least 2 unique peptides and a Mascot score of 20 were used for further analysis. The peptide and protein quantification used a synthetic control peptide for normalization across the samples.
(§3) All proteomic trend plots were constructed using the Evol Science Software suite (ESSv1.0). […]

[4] = test system: BxPC3M1, BxPC3, Panc1, and MiaPaca2; assay: Cell proliferation assay; format: cell-based; settings: vemurafenib 10 μM; all 4 cell lines (WT BRAF)
Protocol: FIGS. 9A-9H illustrate vemurafenib induced cell proliferation and serine synthesis in pancreatic cancer cell lines. FIG. 9A: Cell proliferation assay of BxPC3 cells treated with vemurafenib (10 μM). 100000 cells plated on day 0. FIG. 9B: Cell proliferation assay of BxPC3M1 cells treated with vemurafenib (10 μM). 100000 cells plated on day 0. FIG. 9C: Cell proliferation assay of Panc1 cells treated with vemurafenib (10 μM). 100000 cells plated on day 0. FIG. 9D: Cell proliferation assay of MiaPaca2 cells treated with vemurafenib (10 μM). 100000 cells plated on day 0. FIG. 9E: Mass spectrometry: PHGDH protein expression in pancreatic cancer cells treated with DMSO or vemurafenib (10 μM) (n=3). FIG. 9F: Mass spectrometry: PSAT1 protein expression in pancreatic cancer cells treated with DMSO or vemurafenib (10 μM) (n=3). FIG. 9G: Mass spectrometry: PSPH protein expression in pancreatic cancer cells treated with DMSO or vemurafenib (10 μM) (n=3). FIG. 9H: Mass spectrometry: SARS protein expression in pancreatic cancer cells treated with DMSO or vemurafenib (10 μM) (n=3).
Next, we tested the effect of vemurafenib treatment on pancreatic cancer cell proliferation. All 4 of the cell lines (BxPC3M1, BxPC3, Panc1, and MiaPaca2) tested express WT BRAF. […] As expected, PHGDH, PSAT1, PSPH, and SARS protein abundance increased in all 4 cell lines tested (FIGS. 9E, 9F, 9G, and 9H). […]

[5] = test system: SK-MEL-28VR1 vs SK-MEL-28 cells; settings: protein abundance with vemurafenib treatment, SK-MEL-28VR1 compared to parental SK-MEL-28
[6] = test system: PHGDH in SK-MEL-28VR1 cells; assay: Western blot of PHGDH protein expression; format: cell-based; settings: following vemurafenib treatment; FIG. 5B
Protocol: Cells were harvested, washed in PBS and lysed in NP40 lysis buffer (1% NP40/PBS/10% glycerol) with protease and phosphatase inhibitors. Protein concentrations were determined with Total-Protein-Assay-kit (ITSI Biosciences; K-0014-20) and then SDS sample buffer was added to the lysates. 50 ug of boiled lysates was separated by SDS-PAGE and then transferred onto Immobilon P membranes (Millipore; IPVH00010).

[7] = test system: BxPC3M1, BxPC3, Panc1, and MiaPaca2; format: cell-based, Homo sapiens; settings: vemurafenib 10 μM vs DMSO; all 4 cell lines
SK-MEL-28 cells [8] = assay: Mass spectrometry protein abundance
Protocol: as §2, §3

[9] = test system: pancreatic cancer patient-derived and ATCC established cell lines; assay: 3D-spheroidal growth assay (CTG3D cell viability); format: cell-based; settings: gemcitabine day 2, washed out, B-raf inhibitor day 3, viability day 5; FIG. 15
Protocol: FIG. 15 illustrates gemcitabine sensitized pancreatic cancer patient-derived and ATCC established cell lines to vemurafenib or dabrafenib in 3D-spheroidal growth assays: 20,000 cells plated (Corning 4515 spheroid plates) on day 0, Gemcitabine added on day 2 (all spheroids at least 500 μm in diameter), gemcitabine washed out and B-raf inhibit was added on day 3, CTG3D cell viability assays on day 5 (n=2).
ATCC established cell lines to vemurafenib or dabrafenib in 3D-spheroidal growth assays. 20,000 cells were plated to grow in a 3D-spheroidal growth assays. (Corning 4515 spheroid plates). Two days later when all spheroids were at least 500 μm in diameter, gemcitabine was added 2 days after plating. Gemcitabine was washed out the following day and the B-raf inhibitor was added on day 3 (3 days post-plating). CTG3D cell viability assays were performed 5-days post plating (i.e, on day 5, n=2). […] This was a surprising and unexpected effect that these cells could be killed with this combination.

## CN(Cc1cnc2nc(N)nc(N)c2n1)c1ccc(C(=O)N[C@@H](CCC(=O)O)C(=O)O)cc1 [methotrexate]
SK-MEL-28 cells [1]; methotrexate 75 nM + differential doses of vemurafenib, FIG. 6C
  killing by methotrexate/vemurafenib treatments: no significant killing
NCI-H2122 cells; methotrexate (75 nM) + gemcitabine + vemurafenib (1 μM), FIG. 10B
  cell death compared to gemcitabine+vemurafenib without methotrexate: increased cell death
BxPC3M1 cells; methotrexate (75 nM) + gemcitabine + vemurafenib (1 μM), FIG. 10A
  cell death compared to gemcitabine+vemurafenib without methotrexate: increased cell death
SK-MEL-28VR1 cells [2]; methotrexate 75 nM + differential doses of vemurafenib, FIG. 6D
  killing of cells following vemurafenib treatment: significantly enhanced
SK-MEL-28VR1 cells [2]; methotrexate (75 nM) + gemcitabine (50 nM) + vemurafenib, FIG. 7F
  cell death alongside the gemcitabine/vemurafenib combination: significantly enhanced

## CCCS(=O)(=O)Nc1ccc(F)c(C(=O)c2c[nH]c3ncc(-c4ccc(Cl)cc4)cc23)c1F [vemurafenib, Vemurafenib]
SK-MEL-28VR1 cells [3]; cells exposed to vemurafenib vs vehicle, data not shown
  PHGDH, PSAT1, PSPH, SARS and SARS2 abundance: equal or higher abundances
SK-MEL-28VR1 cells [3]; vemurafenib treatment compared to vehicle treatment, FIG. 5A
  Cytoplasmic FAM129B abundance increase: ~6 fold
[4]
  cell proliferation: increased proliferation
NCI-H2122 cells; vemurafenib 1 μM, FIG. 8C
  sensitization to gemcitabine: sensitized
BxPC3M1 cells; variable gemcitabine doses + vemurafenib 1 μM, FIG. 8A
  sensitization to gemcitabine: significantly sensitized
BxPC3M1 cells; vemurafenib 5 μM, serine depleted media (not with complete media), FIG. 10C
  cell death: > 50%
SK-MEL-28VR1 cells [2]; vemurafenib 2.5 μM and 5 μM, serine depletion (not with complete media), FIG. 6E
  cell death: > 50%
[5]
  Fold differential, ASNS: 8 fold
  Fold differential, CYP51A1: 8 fold
  Fold differential, DUS2: 7 fold
  Fold differential, FAM129B: 9 fold
  Fold differential, KRT19: 5 fold
  Fold differential, LARS2: 6 fold
  Fold differential, MPHOSPH6: 9 fold
  Fold differential, MRPL13: 2 fold
  Fold differential, PDLIM7: 9 fold
  Fold differential, PHGDH: 2 fold
  Fold differential, PPP1R7: 8 fold
  Fold differential, PSAT1: 8 fold
  Fold differential, PSPH: 5 fold
  Fold differential, RUVBL1: 3 fold
  Fold differential, S100A11: 8 fold
  Fold differential, SARS: 6 fold
  Fold differential, SARS2: 4 fold
  Fold differential, SBDS: 10 fold
  Fold differential, SPATA20: 12 fold
  Fold differential, TXNDC17: 2 fold
[6]
  PHGDH levels: increased
[7]
  PHGDH, PSAT1, PSPH, and SARS protein abundance: increased
SK-MEL-28 cells [8]; in response to vemurafenib treatments, parental cells
  FAM129B abundance: decreased
SK-MEL-28 cells [8]; parental cells exposed to vemurafenib vs vehicle, data not shown
  PHGDH, PSAT1, PSPH, SARS and SARS2 abundance: opposite trend

## CC(C)(C)c1nc(-c2cccc(NS(=O)(=O)c3c(F)cccc3F)c2F)c(-c2ccnc(N)n2)s1 [dabrafenib, Dabrafenib]
NCI-H2122 cells; dabrafenib 1 μM + variable doses of gemcitabine, FIG. 11B
  sensitization to gemcitabine: sensitized
BxPC3M1 cells; dabrafenib 1 μM + variable doses of gemcitabine, FIG. 11A
  sensitization to gemcitabine: sensitized

## Nc1ccn([C@@H]2O[C@H](CO)[C@@H](O)C2(F)F)c(=O)n1 [gemcitabine]
SK-MEL-28 cells [1]; gemcitabine 50 nM + variable doses of vemurafenib, FIG. 7A
  sensitization over single vemurafenib treatments: did not sensitize
SK-MEL-28VR1 cells [2]; gemcitabine 50 nM + variable doses of vemurafenib, FIG. 7B
  sensitization to vemurafenib: significantly sensitized
SK-MEL-28VR1 cells [2]; gemcitabine 50 nm + variable doses of dabrafenib, FIG. 11C
  sensitization to dabrafenib: sensitized
[9]
  effect of gemcitabine pre-treatment followed by B-raf inhibitors on the cells: leads to cell death
  sensitization to vemurafenib or dabrafenib: sensitized
